Species: Oryctolagus cuniculus
Experiment: The compound was tested for antagonism of AII-induced contraction of rabbit aorta rings.
Format: functional
Conditions: read-out: pA2 (converted)

| SMILES | Kb [nM] |
| --- | --- |
| CCCCc1nc(CO)c(Cl)n1Cc1cc(OC)c(-c2ccccc2C(=O)O)c(OC)c1 | 3160 |
| CCCCc1nc(Cl)c(CO)n1Cc1ccc(-c2ccccc2C(=O)O)cc1 | 79.4 |

Source: ChEMBL document CHEMBL1125174, “Conformationally restricted polysubstituted biphenyl derivatives with angiotensin II receptors antagonist properties” (J Med Chem, 1991)
